The values below come from patent US11642350B2, “Agent for preventing myopia, treating myopia, and/or preventing myopia progression comprising tiotropium as active ingredient” (priority 2017, dated 2023).

Counter-ions that a name gives are not always drawn.

In one data set the test system is Myopia Mice Model. Briefly: Suppression of axial length elongation in myopia mice model (spectacle lens-induced, eyedrop). Conditions: 7 μL topically once a day, post-natal day 33 to 61, -15D lens, mouse. The data set is classed as in vivo, mice (C57BL/6J). As for the experimental part: Test 2. Test About Suppression of Axial Length Elongation in Myopia Mice Model
Tiotropium bromide hydrate and glycerin were dissolved in water for injection to prepare 0.0001% (w/v) and 0.01% (w/v) tiotropium ophthalmic solutions without adjusting pH.
In a similar way, atropine sulfate hydrate and glycerin were dissolved in water for injection to prepare 0.1% (w/v) atropine ophthalmic solution without adjusting pH. The vehicle (control) was isotonic water which was prepared with water for injection and glycerin.
Spectacle lens-induced myopia model was established by placing −15D hard lens on the right eye of mice (C57BL/6J), which was served as the experimental eye, at post-natal days 18. Briefly, a −15D lens was glued to an annulus (with 8 mm base curve) of Velcro. This mating piece was then attached to the Velcro that had been previously glued to the hair around the right experimental eye using a cyanoacrylate. An air gap of 1.5 mm existed between the back part of the lens and the anterior surface of the cornea.
Ocular biometry such as axial length measurement was done using in vivo Optical Low Coherence Interferometry (OLCI-AcMaster). The axial length was measured at post-natal days 33 and 61.
The ratio for suppressing the axial length elongation with each example was calculated by the following equation: […]
Tiotropium (at 0.0001% or 0.01%) or atropine (at 0.1%) was administered once a day post-natal day 33 until day 61 in the spectacle lens-induced myopia model. 7 μL of each drug was administered topically to the right eye in dim red light at the each day.

Data set [1] relates to pupil diameter of the mice. Briefly: Evaluation of mydriatic action (pupil diameter after a single eyedrop). Conditions: mouse; for Pupil diameter before administration (mm): before the eyedrop (baseline); for Maximum pupil diameter (mm) / Measurement time of maximum pupil diameter: single dose 5 μL to both eyes; for Maximum pupil diameter (mm): longest average among 1, 2, 4 and 24 h. The data set is classed as in vivo. The protocol: Test 3. Evaluation of Mydriatic Action
Tiotropium bromide hydrate and glycerin were dissolved in water for injection to prepare 0.01% (w/v), 0.1% (w/v), and 2% (w/v) tiotropium ophthalmic solutions without adjusting pH.
In a similar way, atropine sulfate hydrate and glycerin were dissolved in water for injection to prepare 0.01% (w/v), and 0.1% (w/v) atropine ophthalmic solutions without adjusting pH.
A single dose (5 μL) of each prepared ophthalmic solution was administered to both eyes of mice (6 eyes of 3 mice per each ophthalmic solution). Before the administration (eyedrop), and 1, 2, 4 and 24 hours after the administration, each pupil diameter of the mice was measured. The measured pupil diameters of the mice at each measurement time per each test sample were averaged to obtain each average value as each average pupil diameter. Among each average pupil diameter at each measurement time, the longest diameter was defined as the maximum pupil diameter.

Another data set concerns Myopia Chick Model. Briefly: Suppression of axial length elongation in myopia chick model (goggle-induced, intravitreal administration). The data set is classed as in vivo, chicks (white leghorns). The note with it: 20 μL intravitreally on day 0, 2 and 4, axial length measured on day 6. The protocol: Test 1. Test About Suppression of Axial Length Elongation in Myopia Chick Model
Tiotropium bromide hydrate was dissolved in saline to prepare 0.1 mM and 10 mM tiotropium solutions.
And, atropine sulfate hydrate was dissolved in saline to prepare 100 mM atropine solution as a reference example.
As a control, saline was used.
A test tube having a diameter of 18 mm was cut off at the level of 10 mm from the bottom, and the cutting circle of the cut-off bottom part was bonded to a flat rubber packing with an adhesive agent to prepare a lens (goggle). 7-day-old chicks (white leghorns) were obtained, and the prepared goggle was attached to the right eye of each chick with an adhesive agent to induce myopia to the chicks. The left eye thereof was its control.
To each of the tiotropium administration groups, 20 μL of each prepared tiotropium solution was intravitreally administered on the day that the goggle was fixed (on day 0), on day 2, and on day 4. […]
On day 6 from the myopia induction, the axial length of right and left eyeballs was measured with a ultrasound axial length measurement ECHOSCAN US-500 (NIDEK CO., LTD.) (A-scan). The difference of axial lengths and the suppression rate of the axial length elongation were calculated by the following formulae.

Setting [2] is: 0.01% (w/v) ophthalmic solution group.
Setting [3] is: 0.01% (w/v) ophthalmic solution.
Where [4] appears, read: 0.1% (w/v) ophthalmic solution group.
The mark [5] stands for this setting: 0.0001% (w/v) ophthalmic solution.

Regarding `CN1[C@@H]2CC[C@H]1C[C@@H](OC(=O)C(CO)c1ccccc1)C2` (some centres unmarked) [atropine, atropine sulfate hydrate], the “Mean (μm) change in the axial length” value in the data set on Myopia Mice Model (0.1% (w/v) ophthalmic solution) is recorded as 111.61 μm. The results for the “Suppression rate (%) of the axial length elongation” value in the data set with Myopia Mice Model (0.1% (w/v) ophthalmic solution) and with Myopia Chick Model (100 mM atropine solution (reference example)) were 29.50% and 83%, respectively. In addition, the figures for the “Pupil diameter before administration (mm)” value in data set [1] (setting [2]) and in data set [1] (setting [4]) were 0.42 mm and 0.40 mm, respectively. The “Maximum pupil diameter (mm)” value is 1.43 mm in data set [1] (setting [3]) and 1.96 mm in data set [1] (0.1% (w/v) ophthalmic solution). In addition, the “Measurement time of maximum pupil diameter” value is 1 h in data set [1] (setting [3]) and 2 h in data set [1] (0.1% (w/v) ophthalmic solution).

Take `C[N+]1(C)C2CC(OC(=O)C(O)(c3cccs3)c3cccs3)CC1C1OC12` (stereo not drawn) [tiotropium, (1α,2β,4β,5α,7β)-7-[(hydroxydi-2-thienylacetyl)oxy]-9,9-dimethyl-3-oxa-9-azoniatricyclo[3.3.1.0^2,4]nonane bromide monohydrate]: the “Mean (μm) change in the axial length” value in the data set on Myopia Mice Model (setting [5]) was determined as 135.84 μm; with Myopia Mice Model (setting [3]) it was 112.95 μm. For the same molecule, the entries for the “Suppression rate (%) of the axial length elongation” value in the data set on Myopia Mice Model (setting [5]), in the data set on Myopia Mice Model (setting [3]) and in the data set on Myopia Chick Model (0.1 mM solution) were 14.20%, 28.66% and 45%, respectively. For the same molecule, the “Pupil diameter before administration (mm)” value in data set [1] (setting [2]) is given as 0.36 mm; in data set [1] (setting [4]) it was 0.43 mm; in data set [1] (2% (w/v) ophthalmic solution group) it was 0.36 mm. For the same molecule, the “Maximum pupil diameter (mm)” value in data set [1] (setting [3]) is recorded as 1.24 mm; in data set [1] (0.1% (w/v) ophthalmic solution), 2.23 mm; in data set [1] (2% (w/v) ophthalmic solution) it was 2.15 mm. Also, the “Measurement time of maximum pupil diameter” value in data set [1] (setting [3]) is reported as 4 h; in data set [1] (0.1% (w/v) ophthalmic solution), 2 h; in data set [1] (2% (w/v) ophthalmic solution), 1 h.
